Experimental data published in article PMC4303869 (Scientific Reports, 2015).

Target: Aβ42 (amyloid β-protein 42) (Homo sapiens, UniProt P05067)
Assay: ThT fluorescence fibrillogenesis assay
Format: biochemical

Aβ42 (amyloid β-protein 42), sequence (P05067 672-713): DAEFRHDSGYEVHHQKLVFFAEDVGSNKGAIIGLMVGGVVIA

| Compound | IC50 [nM] |
| --- | --- |
| Oc1ccc2c(c1)OC[C@]1(O)Cc3cc(O)c(O)cc3[C@H]21 [brazilin] | 1500 ± 300 |
| O=C(O[C@@H]1Cc2c(O)cc(O)cc2O[C@@H]1c1cc(O)c(O)c(O)c1)c1cc(O)c(O)c(O)c1 [EGCG] | 2400 ± 400 |
